Source: ChEMBL document CHEMBL5291721, “A preclinical secondary pharmacology resource illuminates target-adverse drug reaction associations of marketed drugs” (Nat Commun, 2023)

What was measured:
Androgen receptor = biological target: T1, Androgen receptor (Rattus norvegicus, UniProt P15207); assay type: functional
T1 sequence (P15207 whole entry): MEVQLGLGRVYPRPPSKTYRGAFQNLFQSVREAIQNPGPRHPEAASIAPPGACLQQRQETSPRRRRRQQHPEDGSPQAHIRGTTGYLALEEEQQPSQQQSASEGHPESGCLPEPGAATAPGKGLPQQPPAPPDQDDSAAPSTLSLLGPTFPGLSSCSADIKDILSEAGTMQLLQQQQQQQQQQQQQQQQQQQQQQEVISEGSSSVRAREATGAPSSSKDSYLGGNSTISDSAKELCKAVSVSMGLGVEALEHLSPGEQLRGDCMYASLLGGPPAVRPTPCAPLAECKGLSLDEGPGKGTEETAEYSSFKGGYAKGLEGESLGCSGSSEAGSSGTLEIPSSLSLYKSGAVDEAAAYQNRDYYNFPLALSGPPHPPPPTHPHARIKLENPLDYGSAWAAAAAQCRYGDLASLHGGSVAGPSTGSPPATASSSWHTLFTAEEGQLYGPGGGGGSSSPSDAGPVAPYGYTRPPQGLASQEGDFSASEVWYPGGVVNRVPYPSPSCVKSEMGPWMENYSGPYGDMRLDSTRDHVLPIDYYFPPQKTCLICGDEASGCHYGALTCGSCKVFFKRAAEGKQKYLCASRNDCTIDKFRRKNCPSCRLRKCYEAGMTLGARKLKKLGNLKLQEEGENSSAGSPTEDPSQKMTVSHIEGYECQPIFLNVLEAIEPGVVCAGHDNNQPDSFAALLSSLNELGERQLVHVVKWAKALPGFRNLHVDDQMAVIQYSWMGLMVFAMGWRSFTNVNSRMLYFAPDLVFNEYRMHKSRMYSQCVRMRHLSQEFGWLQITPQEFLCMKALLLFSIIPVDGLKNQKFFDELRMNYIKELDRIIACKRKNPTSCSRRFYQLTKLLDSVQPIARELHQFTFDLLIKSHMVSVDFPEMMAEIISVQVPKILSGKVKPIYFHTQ

[1] = biological target: T2, Type-2 angiotensin II receptor (Homo sapiens, UniProt P50052); assay type: functional
T2 sequence (P50052 whole entry): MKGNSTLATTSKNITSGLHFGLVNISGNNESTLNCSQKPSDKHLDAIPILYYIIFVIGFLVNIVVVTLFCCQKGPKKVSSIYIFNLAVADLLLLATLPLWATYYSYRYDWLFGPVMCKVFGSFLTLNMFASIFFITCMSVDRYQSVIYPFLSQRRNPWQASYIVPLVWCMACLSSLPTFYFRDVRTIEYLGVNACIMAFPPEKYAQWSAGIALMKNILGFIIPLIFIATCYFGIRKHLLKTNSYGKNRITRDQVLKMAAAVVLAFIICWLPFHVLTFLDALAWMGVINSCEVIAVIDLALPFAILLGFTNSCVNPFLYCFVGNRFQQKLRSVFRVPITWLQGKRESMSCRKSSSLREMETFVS

Glucagon receptor = Glucagon receptor (Homo sapiens, UniProt P47871)
[2] = biological target: Gamma-aminobutyric acid type B receptor subunit 1 (Homo sapiens, UniProt Q9UBS5)
[3] = biological target: T3, Endothelin receptor type B (Homo sapiens, UniProt P24530)
T3 sequence (P24530 whole entry): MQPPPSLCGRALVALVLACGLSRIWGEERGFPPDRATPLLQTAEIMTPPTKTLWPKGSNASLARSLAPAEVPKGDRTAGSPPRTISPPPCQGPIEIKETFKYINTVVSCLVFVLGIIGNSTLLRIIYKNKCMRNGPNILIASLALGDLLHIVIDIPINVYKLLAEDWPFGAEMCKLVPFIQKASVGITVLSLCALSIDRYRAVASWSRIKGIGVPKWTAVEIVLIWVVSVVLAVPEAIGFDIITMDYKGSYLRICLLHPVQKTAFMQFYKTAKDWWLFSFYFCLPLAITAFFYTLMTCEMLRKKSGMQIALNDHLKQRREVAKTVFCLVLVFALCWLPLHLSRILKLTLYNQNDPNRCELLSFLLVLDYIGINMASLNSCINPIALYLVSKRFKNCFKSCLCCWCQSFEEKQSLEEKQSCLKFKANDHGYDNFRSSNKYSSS

[4] = biological target: T4, Corticotropin-releasing factor receptor 1 (Homo sapiens, UniProt P34998)
T4 sequence (P34998 whole entry): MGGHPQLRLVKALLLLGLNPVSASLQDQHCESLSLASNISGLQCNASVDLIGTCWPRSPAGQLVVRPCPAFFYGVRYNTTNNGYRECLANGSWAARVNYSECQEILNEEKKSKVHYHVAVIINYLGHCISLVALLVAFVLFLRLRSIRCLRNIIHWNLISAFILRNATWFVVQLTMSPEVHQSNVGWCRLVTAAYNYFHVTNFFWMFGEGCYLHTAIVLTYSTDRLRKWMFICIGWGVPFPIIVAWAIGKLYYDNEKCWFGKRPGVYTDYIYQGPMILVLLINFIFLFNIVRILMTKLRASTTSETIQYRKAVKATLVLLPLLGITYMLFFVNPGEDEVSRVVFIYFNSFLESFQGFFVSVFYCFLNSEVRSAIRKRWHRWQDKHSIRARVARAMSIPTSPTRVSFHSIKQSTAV

B1 bradykinin receptor = biological target: T5, B1 bradykinin receptor (Homo sapiens, UniProt P46663)
T5 sequence (P46663 whole entry): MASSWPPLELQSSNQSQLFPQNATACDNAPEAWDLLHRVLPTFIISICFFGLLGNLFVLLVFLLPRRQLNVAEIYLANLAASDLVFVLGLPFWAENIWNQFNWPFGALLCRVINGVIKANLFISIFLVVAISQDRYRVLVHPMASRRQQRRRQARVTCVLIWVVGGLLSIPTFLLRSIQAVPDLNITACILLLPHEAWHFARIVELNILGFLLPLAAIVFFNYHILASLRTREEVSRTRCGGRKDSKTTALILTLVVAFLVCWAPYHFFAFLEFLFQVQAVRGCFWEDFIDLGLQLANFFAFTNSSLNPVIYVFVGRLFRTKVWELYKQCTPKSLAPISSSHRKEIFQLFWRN

Cannabinoid receptor 1 = Cannabinoid receptor 1 (Homo sapiens, UniProt P21554); assay type: functional
[5] = biological target: 5-hydroxytryptamine receptor 7 (Homo sapiens, UniProt P34969)
Further: assay procedure not described here.

Sequence of Gamma-aminobutyric acid type B receptor subunit 1 (Q9UBS5 whole entry): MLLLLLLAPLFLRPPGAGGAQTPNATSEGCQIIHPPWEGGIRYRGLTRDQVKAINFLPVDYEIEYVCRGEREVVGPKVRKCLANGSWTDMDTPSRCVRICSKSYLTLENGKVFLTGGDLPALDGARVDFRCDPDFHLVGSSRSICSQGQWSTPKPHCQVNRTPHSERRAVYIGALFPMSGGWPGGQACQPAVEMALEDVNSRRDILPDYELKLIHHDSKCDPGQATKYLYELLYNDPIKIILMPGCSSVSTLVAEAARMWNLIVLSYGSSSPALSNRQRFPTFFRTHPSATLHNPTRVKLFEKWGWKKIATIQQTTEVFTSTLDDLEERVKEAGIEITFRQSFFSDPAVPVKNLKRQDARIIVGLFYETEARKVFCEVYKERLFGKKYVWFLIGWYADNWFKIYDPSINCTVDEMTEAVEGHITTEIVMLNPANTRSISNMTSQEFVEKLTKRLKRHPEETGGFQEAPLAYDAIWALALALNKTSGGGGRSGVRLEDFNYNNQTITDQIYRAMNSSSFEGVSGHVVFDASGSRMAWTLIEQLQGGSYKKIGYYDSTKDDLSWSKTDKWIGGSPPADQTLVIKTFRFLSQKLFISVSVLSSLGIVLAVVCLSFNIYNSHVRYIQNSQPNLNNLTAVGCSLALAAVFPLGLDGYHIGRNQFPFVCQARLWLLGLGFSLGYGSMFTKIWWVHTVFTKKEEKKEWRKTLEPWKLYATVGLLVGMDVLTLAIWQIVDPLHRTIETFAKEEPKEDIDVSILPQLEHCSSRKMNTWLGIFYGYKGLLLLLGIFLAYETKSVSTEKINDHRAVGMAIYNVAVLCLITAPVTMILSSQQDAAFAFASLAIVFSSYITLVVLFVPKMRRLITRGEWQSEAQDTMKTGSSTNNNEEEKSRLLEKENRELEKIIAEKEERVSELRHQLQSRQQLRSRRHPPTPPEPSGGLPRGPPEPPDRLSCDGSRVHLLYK
Sequence of Glucagon receptor (P47871 whole entry): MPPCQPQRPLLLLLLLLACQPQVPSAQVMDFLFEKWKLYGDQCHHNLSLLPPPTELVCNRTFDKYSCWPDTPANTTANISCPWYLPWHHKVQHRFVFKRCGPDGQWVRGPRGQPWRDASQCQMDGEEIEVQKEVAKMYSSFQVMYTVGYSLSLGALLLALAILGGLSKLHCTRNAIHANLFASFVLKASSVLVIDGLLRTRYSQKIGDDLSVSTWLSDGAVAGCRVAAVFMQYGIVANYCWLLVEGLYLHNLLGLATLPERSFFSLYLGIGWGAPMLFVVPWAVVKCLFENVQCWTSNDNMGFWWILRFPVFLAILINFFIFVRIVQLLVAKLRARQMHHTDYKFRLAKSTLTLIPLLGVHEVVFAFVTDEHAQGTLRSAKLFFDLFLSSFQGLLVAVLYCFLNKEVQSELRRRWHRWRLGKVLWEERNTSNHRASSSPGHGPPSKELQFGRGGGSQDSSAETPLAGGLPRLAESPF
Sequence of Cannabinoid receptor 1 (P21554 whole entry): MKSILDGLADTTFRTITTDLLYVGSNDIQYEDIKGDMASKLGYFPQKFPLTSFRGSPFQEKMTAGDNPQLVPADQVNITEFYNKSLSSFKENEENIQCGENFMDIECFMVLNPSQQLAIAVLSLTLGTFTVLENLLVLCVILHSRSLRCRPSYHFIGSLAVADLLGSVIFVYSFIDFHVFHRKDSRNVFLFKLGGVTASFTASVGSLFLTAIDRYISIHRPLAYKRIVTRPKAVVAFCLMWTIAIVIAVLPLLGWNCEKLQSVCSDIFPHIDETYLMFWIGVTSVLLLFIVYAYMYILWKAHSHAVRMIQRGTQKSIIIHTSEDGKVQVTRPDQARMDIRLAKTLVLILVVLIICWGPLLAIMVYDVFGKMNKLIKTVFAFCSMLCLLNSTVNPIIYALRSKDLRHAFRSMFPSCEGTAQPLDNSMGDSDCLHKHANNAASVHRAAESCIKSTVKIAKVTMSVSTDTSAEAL
Sequence of 5-hydroxytryptamine receptor 7 (P34969 whole entry): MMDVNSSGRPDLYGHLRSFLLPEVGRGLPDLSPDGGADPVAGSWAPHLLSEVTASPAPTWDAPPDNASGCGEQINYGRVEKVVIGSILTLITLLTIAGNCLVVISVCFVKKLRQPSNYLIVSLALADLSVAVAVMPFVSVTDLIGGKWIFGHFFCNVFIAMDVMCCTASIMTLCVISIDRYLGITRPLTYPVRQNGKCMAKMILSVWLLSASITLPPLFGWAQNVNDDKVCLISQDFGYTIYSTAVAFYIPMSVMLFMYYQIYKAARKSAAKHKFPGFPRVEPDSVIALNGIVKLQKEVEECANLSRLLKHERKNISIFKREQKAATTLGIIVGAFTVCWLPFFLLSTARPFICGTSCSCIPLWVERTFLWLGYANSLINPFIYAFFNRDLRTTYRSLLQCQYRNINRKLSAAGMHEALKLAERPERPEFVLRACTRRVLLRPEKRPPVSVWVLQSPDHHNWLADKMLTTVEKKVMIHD

AC50 (Androgen receptor) | SMILES | AC50 [1] | AC50 (Glucagon receptor) | AC50 [2] | AC50 [3] | AC50 [4] | AC50 (B1 bradykinin receptor) | AC50 (Cannabinoid receptor 1) | AC50 [5]
> 30 µM | CC(C)(Oc1ccc(Cl)cc1)C(=O)OCCOC(=O)c1cccnc1 [ETOFIBRATE] |  |  |  |  |  |  |  | 
 | CC(C)Cc1ccc(C(C)C(=O)OCc2ccccn2)cc1 (stereo not drawn) [IBUPROFEN PICONOL] | > 100 µM |  |  |  |  |  |  | 
 | N=C(N)NC(=O)c1nc(Cl)c(N)nc1N [AMILORIDE] | > 100 µM | > 30 µM | > 10 µM | > 30 µM | > 30 µM | > 10 µM | > 10 µM | > 10 µM
 | C[C@]12C=CC(=O)C=C1CC[C@@H]1[C@@H]2[C@@H](O)C[C@@]2(C)[C@H]1CC[C@]2(O)C(=O)CO [PREDNISOLONE] |  | > 30 µM |  | > 30 µM | > 30 µM | > 30 µM |  | 
 | Cc1ccc(O)c([C@H](CCN(C(C)C)C(C)C)c2ccccc2)c1 [TOLTERODINE] |  |  | > 10 µM |  |  |  | > 10 µM | > 10 µM
> 30 µM | C[C@]12C=CC(=O)C=C1C(Cl)=C[C@@H]1[C@@H]2[C@@H](O)C[C@@]2(C)[C@H]1CC[C@]2(O)C(=O)CO [CLOPREDNOL] |  |  |  |  |  |  |  | 
